One data set deals with Helminthosporium. Kind of data set: Antifungal activity against Helminthosporium sativum at 500 ug/disk. The format is functional, organism-based.
Another data set concerns Aspergillus flavus. Nature of the data set: Antifungal activity against Aspergillus flavus at 500 ug/disk. The class given is functional, organism-based.
A further data set concerns Geotrichum candidum. Kind of data set: Antifungal activity against Geotrichum candidum at 500 ug/disk. The format is functional, organism-based.
Data set [1] concerns Sclerotinia sclerotiorum. Nature of the data set: Antifungal activity against Sclerotinia sclerotiorum at 0.00011 uM/disk after 96 hrs. The format is functional. The settings on record: read-out: IZ.
In a further data set the test system is Aspergillus niger. Nature of the data set: Antifungal activity against Aspergillus niger at 500 ug/disk. The class given is functional, organism-based.
Another data set relates to Candida albicans. Kind of data set: Antifungal activity against Candida albicans at 500 ug/disk. The class given is functional, organism-based.
Another data set concerns Artemia. Kind of data set: Toxicity against brine shrimp at 500 ug/mL. The format is organism-based. To be noted: in vivo.
The next data set has as its system Fusarium oxysporum. Nature of the data set: Antifungal activity against Fusarium oxysporum at 500 ug/disk. The class given is functional, organism-based.
In data set [2] the test system is Sclerotinia sclerotiorum. Nature of the data set: Antifungal activity against Sclerotinia sclerotiorum at 0.00034 uM/disk after 96 hrs. The format is functional. To be noted: read-out: IZ.

Each structure is given as a SMILES string. Calls of active or inactive are those of the source. The rule behind the calls is not given here.

On to `CC1=C[C@H]2C[C@H](C)[C@@H](O)[C@H](C)[C@H]2[C@H](/C=C(C)/C=C(C)/C=C/C(=O)O)/C1=C\C(=O)CO`, for which the outcome in the data set on Helminthosporium, with Aspergillus flavus, with Geotrichum candidum, in the data set on Aspergillus niger, in the data set with Candida albicans and with Fusarium oxysporum was inactive. In the data set on Sclerotinia sclerotiorum [1], the zone of inhibition at 0.00011 µM came to 17 mm. For the same compound, in the data set with Artemia, the Activity result is listed as “Non-toxic”.
For the compound `CC1=C[C@H]2C[C@H](C)[C@@H](O)[C@H](C)[C@H]2[C@H](/C=C(C)/C=C(C)\C=C\C(=O)O)/C1=C\C(=O)CO`, the zone of inhibition at 0.00034 µM in the data set on Sclerotinia sclerotiorum [2] is 16 mm. Moreover, the result in the data set on Helminthosporium, in the data set on Aspergillus flavus, in the data set with Geotrichum candidum, in the data set on Aspergillus niger, in the data set with Candida albicans and in the data set with Fusarium oxysporum was inactive. For the same compound, the Activity result with Artemia is listed as “Non-toxic”.

The values are drawn from ChEMBL document CHEMBL1144091, “Isolation of two highly methylated polyketide derivatives from a yew-associated penicillium species” (J Nat Prod, 1999).
